Data taken from patent US11014902B2, “MYC G-quadruplex stabilizing small molecules and their use” (The United States of America, as represented by the …, priority 2015, dated 2021).

Assays:
DU-145 = assay: NCI-60 cell growth (SRB); type: cell-based; conditions: DU-145, Prostate Cancer; 10 μM, 48 hours
Description: (§1) This example illustrates that Compounds 1 and 23 can be used in inhibit the growth of c-Myc expressing cancer cell lines in vitro. The NCI-60 panel of cancer cell lines (see Shoemaker, Nat. Rev. Cancer, 6, 813-823, 2006, and dtp.cancer.gov/discovery_development/nci-60/) was assayed for cell growth in the presence of 10 μM Compound 1 or Compound 23 for 48 hours. At 48 hours, the assay was terminated by fixation with TCA and determination of relative cell counts by addition of Sulforhodamine B (SRB, see Alley et al., Cancer Research, 48: 589-601, 1988.). Growth percent was determined by comparison of SRB reading of a duplicate plate of cells taken at the time of compound addition to the SRB reading at the termination of the treatment. The following table provides a summary of the percent of growth of each cell line in the panel compared to control (no treatment), as well as the mean delta and range of percent growth compared to control across the panel of cell lines for each treatment condition.

MALME-3M = assay: NCI-60 cell growth (SRB); type: cell-based; conditions: Melanoma, 10 μM, 48 hours
Description: as §1

SR = assay: NCI-60 cell growth (SRB); type: cell-based; conditions: Leukemia, 10 μM, 48 hours
Description: as §1

SF-295 = assay: NCI-60 cell growth (SRB); type: cell-based; conditions: SF-295, CNS Cancer; 10 μM, 48 hours
Description: as §1

UO-31 = assay: NCI-60 cell growth (SRB); type: cell-based; conditions: UO-31, Renal Cancer; 10 μM, 48 hours
Description: as §1

HCT-15 = assay: NCI-60 cell growth (SRB); type: cell-based; conditions: HCT-15, Colon Cancer; 10 μM, 48 hours
Description: as §1

A498 = assay: NCI-60 cell growth (SRB); type: cell-based; conditions: A498, Renal Cancer; 10 μM, 48 hours
Description: as §1

IGROV1 = assay: NCI-60 cell growth (SRB); type: cell-based; conditions: IGROV1, Ovarian Cancer; 10 μM, 48 hours
Description: as §1

OVCAR-3 = assay: NCI-60 cell growth (SRB); type: cell-based; conditions: OVCAR-3, Ovarian Cancer; 10 μM, 48 hours
Description: as §1

MDA-MB-231/ATCC = assay: NCI-60 cell growth (SRB); type: cell-based; conditions: Breast Cancer, 10 μM, 48 hours
Description: as §1

SN12C = assay: NCI-60 cell growth (SRB); type: cell-based; conditions: Renal Cancer, 10 μM, 48 hours
Description: as §1

BT-549 = assay: NCI-60 cell growth (SRB); type: cell-based; conditions: BT-549, Breast Cancer; 10 μM, 48 hours
Description: as §1

CCRF-CEM = assay: NCI-60 cell growth (SRB); type: cell-based; conditions: Leukemia, 10 μM, 48 hours
Description: as §1

M14 = assay: NCI-60 cell growth (SRB); type: cell-based; conditions: M14, Melanoma; 10 μM, 48 hours
Description: as §1

HOP-62 = assay: NCI-60 cell growth (SRB); type: cell-based; conditions: HOP-62, Non-Small Cell Lung Cancer; 10 μM, 48 hours
Description: as §1

CAKI-1 = assay: NCI-60 cell growth (SRB); type: cell-based; conditions: CAKI-1, Renal Cancer; 10 μM, 48 hours
Description: as §1

NCI-H460 = assay: NCI-60 cell growth (SRB); type: cell-based; conditions: NCI-H460, Non-Small Cell Lung Cancer; 10 μM, 48 hours
Description: as §1

SW-620 = assay: NCI-60 cell growth (SRB); type: cell-based; conditions: SW-620, Colon Cancer; 10 μM, 48 hours
Description: as §1

LOX IMVI = assay: NCI-60 cell growth (SRB); type: cell-based; conditions: Melanoma, 10 μM, 48 hours
Description: as §1

HOP-92 = assay: NCI-60 cell growth (SRB); type: cell-based; conditions: HOP-92, Non-Small Cell Lung Cancer; 10 μM, 48 hours
Description: as §1

OVCAR-4 = assay: NCI-60 cell growth (SRB); type: cell-based; conditions: OVCAR-4, Ovarian Cancer; 10 μM, 48 hours
Description: as §1

[1] = tested on: RB1, VEGFA, KRAS, HIF1α, BCL2 expression in L363 cells; assay: Gene expression analysis (Nanostring, qPCR), other G4-associated genes; type: cell-based, human; conditions: for expression of other G-quadruplex containing genes (qPCR): L363 cells
Description: Gene expression analysis was performed on a panel of 770 cancer-associated genes in a multiplexed (nanostring) transcriptional assay. In addition to c-MYC itself, several c-Myc target genes were included in the panel, as were a number of other quadruplex-driven genes. […] Additionally, a third data set was collected comparing Compound 1 treatment to JQ-1 (a BET-bromodomain inhibitor) and quarfloxin (another quadruplex-binding small molecule).
The effects of Compound 1 on a number of known quadruplex-driven genes in the panel were examined further (FIG. 6). Expression levels of MYC, RB1, VEGFA, KRAS, and HIF1α, all of which are reported to be under the control of promoter G4s, and are expressed in L363 cells, were included in the panel of genes evaluated by Nanostring as discussed above. […] These changes in gene expression are in line with biophysical measurements of compound affinity. Corresponding data showing similar results is presented for Compounds 1 and 23 in FIGS. 14A and 14B. […] These observations further highlight the ability of Compound 1 and Compound 23 to specifically target the expression of c-Myc and related pathways.
The phenotype for c-MYC genetic knockdown in multiple myeloma was achieved through lentiviral transduction of shRNA for c-MYC, derived from the spinoculation of 293T cells and plasmids grown in STBL3 E. coli, and isolated with the Qiagen Plasmid Midi Kit. Aliquots of the plasmids were generously provided by Art Shaffer. RNA of treated myeloma cells at designated time points was isolated with the Qiagen RNeasy kit, and used with the nCounter Human Cancer Reference Kit (NanoString Technologies), surveying changes in expression for […] cancer-related human genes and 6 reference genes. Quantitative changes in expression were analyzed and grouped in the form of a heat map using the programming language, R. All other quantitative statistical packing was performed in GraphPad Prism.

[2] = tested on: c-MYC expression in L363 cells; assay: Inhibition of c-MYC expression in L363 cells (Peggy); type: cell-based, human; conditions: Homo sapiens, L-363, L363 cells, at 10 μM; read-out: Peggy (% c-Myc expression compared to untreated)
From the text: FIG. 10 illustrates an exemplary procedure for generating analogs of Compound 1. The amine group of Compound 1 can be varied in reductive aminations to provide additional analogs. […] The table also provides an indication of an exemplary commercial source for the compounds, or (if applicable) an indication that the compound is new.

[3] = 48 hours, 10 μM BRACO-19, 10 μM Compound 1, 7.5 μM Compound 23

| SMILES | Growth Percent (DU-145) | Growth Percent (MALME-3M) | Growth Percent (SR) | Growth Percent (SF-295) | Growth Percent (UO-31) | Growth Percent (HCT-15) | Growth Percent (A498) | Growth Percent (IGROV1) | Growth Percent (OVCAR-3) | Growth Percent (MDA-MB-231/ATCC) | Growth Percent (SN12C) | Growth Percent (BT-549) | Growth Percent (CCRF-CEM) | Growth Percent (M14) | Growth Percent (HOP-62) | Growth Percent (CAKI-1) | Growth Percent (NCI-H460) | Growth Percent (SW-620) | Growth Percent (LOX IMVI) | Growth Percent (HOP-92) | other results |
| --- | --- | --- | --- | --- | --- | --- | --- | --- | --- | --- | --- | --- | --- | --- | --- | --- | --- | --- | --- | --- | --- |
| Cc1ccc(NC(=O)c2c(C)oc3ccc(O)c(CN4CCCCCC4)c23)cc1 [Compound 1] | 103.26% | 107.60% | 83.12% | 85.34% | 62.74% | 83.45% | 64.12% | 81.22% | 101.03% | 79.39% | 84.31% | 92.88% | 87.67% | 85.90% | 79.76% | 75.13% | 80.25% | 85.97% | 88.87% | 55.89% | Growth Percent (OVCAR-4): 82.06%; expression of other G4-associated genes (nanostring) ([1]; 10 μM, 2 h to 48 h): minimally affected; expression of other genes (qPCR) ([1]; 5, 10 or 12.5 μM, 48 hours): minimally affected; expression of other G-quadruplex containing genes (qPCR) [1, 3]: minimally affecting expression of other G-quadruplex containing genes; activity at 10 µM [2]: 50% |
| Cc1oc2ccc(O)c(CN3CCCCCC3)c2c1C(=O)Nc1ccc(C(F)(F)F)cc1 [Compound 23] | 64.80% | 49.92% | −8.44% | 48.84% | 40.69% | 45.06% | 50.48% | 54.25% | 62.02% | 48.96% | 66.72% | 78.51% | 65.23% | 58.14% | 70.39% | 50.46% | 51.53% | 67.44% | 39.15% | 34.88% | Growth Percent (OVCAR-4): 58.58%; expression of other G-quadruplex containing genes (qPCR) ([1]; 5 μM, 24 or 48 hours): minimally affecting expression of other G-quadruplex containing genes; expression of other G-quadruplex containing genes (qPCR) [1, 3]: minimally affecting expression of other G-quadruplex containing genes; activity at 10 µM [2]: 0.44% |
